Where a name gives a salt, the structure may show the parent alone. Blank lines part the entries; values can stand above or below the compound they belong to.
Assays:
serotonin ulcer = experiment: Inhibitory activity on serotonin ulcer; type: in vivo, SD-strain male rats; conditions: 30 min before serotonin 20 mg/kg s.c., rats
Method: Seven week-old SD-strain male rats (body weight 200 to 220 g) were fasted for 24 hours but water was provided freely, and then used in the following experiment. Each of the test compounds suspended in 0.5% CMC was administered to the rats either orally or intraperitoneally, and 30 minutes later, serotonin (serotonin creatinine sulfate) was subcutaneously administered to the rats in a dose of 20 mg/kg. Four hours later, the animals were sacrificed. The abdomen was cut open, and the stomach was taken out from each animal. 12 ml of 1% formalin was injected into the stomach to inflate it, and the stomach was further dipped for about 10 minutes in 1% formalin for fixation. Then, the stomach was cut open on the side of the lesser curvature, and spread on a glass plate. The area of ulcers generated in the glandular stomach was measured by using a solid microscope. The sum of the area of ulcer for each animal was used as the ulcer index. The ulcer inhibiting ratio of the test compound was calculated in accordance with the following equation. [formula] The control group was given 0.5% CMC and serotonin alone.

indomethacin ulcer = experiment: Inhibitory activity on indomethacin ulcer; type: in vivo, SD-strain male rats; conditions: 400 mg/kg oral, 30 min before indomethacin 20 mg/kg oral, rats
Method: Seven week-old SD-strain male rats (body weight 200 to 220 g) were fasted for 24 hours but water was provided freely, and then used in the following experiment.
Each of the test compounds suspended in 0.5% CMC was orally administered to the rats, and 30 minutes later, indomethacin was orally administered in a dose of 20 mg/kg. Six hours later, the animals were sacrificed. The abdomen was cut open, and the stomach was removed. 1% Evan's blue was injected in an amount of 0.5 ml/rat into the rats through the tail vein under ether anesthesia 10 minutes before sacrificing.
12 ml of a 1% formalin was injected into the stomach and the stomach was further dipped in 1% formalin for about 10 minutes for the fixation. The stomach was cut open on the side of the greater curvature, and spread on a glass plate. The lengths of ulcers generated in the glandular stomach were measured by using a solid microscope. The sum of the lengths of the ulcers for each animal was used as the ulcer index. The ulcer inhibiting ratio of the test compound was calculated in accordance with the following equation. [formula]
The control group was given 0.5% CMC and indomethacin alone.

gastric secretion = experiment: Inhibitory activity on gastric secretion (pylorus ligation); type: in vivo, male rats; conditions: for Amount of gastric juice: 4 hours after pylorus ligation, control 6.8 ± 0.6, in ml (unit assumed); for Acidity: control 109.1 ± 1.7
Method: Seven week-old DS-strain male rats (body weight 200 to 220 g) were fasted for 24 hours but water was provided freely, and then used in the following experiment.
The rats were anesthetized with ether. The abdomen was cut open along the median line to expose the pylorus. Then, the pylorus was ligated. After ligation, each of the test compounds dissolved in physiological saline was intraperitoneally administered to the animals. The abdomen was sutured, and after confirming that the animals recovered from ether anesthesia, they were kept in a wire cage while being deprived of food and water. Four hours later, the animals were killed by using ether. The abdomen was again cut open, and the stomach was removed. The gastric juice was collected, and its volume and acidity was measured. The acidity of the gastric juice was determined by titrating with 0.05 N sodium hydroxide using phenolphthalein as an indicator, and calculating the amount of sodium hydroxide required to neutralize the gastric juice which is estimated as the acidity of the gastric juice.
The control group was given physiological saline alone.
For the method of studying the inhibitory activity on the gastiic secretion, reference may be made to H. Shay, S. A. Komoroe, S. S. Fels, M. Meraze, M. Gruestein and H. Siplet: Gastroent., 5, 43 (1945), and M. L. Anson: J. Gen, Physiol., 21, 79 (1938).

plasmin = target: T1, plasmin (Homo sapiens, UniProt P00747); experiment: Antiplasmin activity (clot lysis time, fibrinogen/urokinase/thrombin); type: biochemical
T1 construct: fibrin clot lysis, native
Method: Human fibrinogen was dissolved in a phosphate-buffered physiological saline (PBS) at a pH of 7.4 to prepare a 0.2% solution. Urokinase and thrombin were dissolved similarly in PBS to prepare a solution containing 120 units of urokinase and 50 units of thrombin per ml. […] Then, 0.1 ml of the urokinase-thrombin mixed solution was added, and a microchronometer was started. One minute after the starting of the microchronometer, a glass ball having a diameter of 8 mm was put on the coagulated surface, and the incubation was continued. The time which elapsed from the dissolution of the coagulated mass until the glass ball dropped onto the bottom of the test tube was measured. As a control, PBS alone was added.

thrombin = experiment: Antithrombin activity (recalcification time of plasma); conditions: rabbit plasma
Method: Citrated blood (3.5% sodium citrate: blood=1:9) was drawn from a white native male rabbit (3 to 3.5 kg in body weight). The blood was centrifuged at 3000 rpm to prepare plasma which was used in the following experiment. One milliliter of the plasma was put in a small test tube having an inside diameter of 12 mm, and incubated at 37° C. Then, 0.1 ml of each of the test compounds, dissolved in PBS, was added, and the mixture was further incubated at 37° C. for 2 minutes. Then, 0.2 ml of 0.02 M CaCl2 was added, and a microchronometer was started. While occasionally shaking the test tube, the time which elapsed until the plasma coagulated was measured. As a control, PBS was used.

[1] = 10^-3 M, second series, control 556.7 ± 12.6
[2] = 10^-4 M, second series, control 556.7 ± 12.6
[3] = 5 × 10^-3 M, second series, control 103.3 ± 7.6
[4] = 10^-3 M, first series, control 391.7 ± 16.1
[5] = 10^-4 M, first series, control 391.7 ± 16.1
[6] = 5 × 10^-4 M, second series, control 103.3 ± 7.6

T1 sequence (P00747 97-810): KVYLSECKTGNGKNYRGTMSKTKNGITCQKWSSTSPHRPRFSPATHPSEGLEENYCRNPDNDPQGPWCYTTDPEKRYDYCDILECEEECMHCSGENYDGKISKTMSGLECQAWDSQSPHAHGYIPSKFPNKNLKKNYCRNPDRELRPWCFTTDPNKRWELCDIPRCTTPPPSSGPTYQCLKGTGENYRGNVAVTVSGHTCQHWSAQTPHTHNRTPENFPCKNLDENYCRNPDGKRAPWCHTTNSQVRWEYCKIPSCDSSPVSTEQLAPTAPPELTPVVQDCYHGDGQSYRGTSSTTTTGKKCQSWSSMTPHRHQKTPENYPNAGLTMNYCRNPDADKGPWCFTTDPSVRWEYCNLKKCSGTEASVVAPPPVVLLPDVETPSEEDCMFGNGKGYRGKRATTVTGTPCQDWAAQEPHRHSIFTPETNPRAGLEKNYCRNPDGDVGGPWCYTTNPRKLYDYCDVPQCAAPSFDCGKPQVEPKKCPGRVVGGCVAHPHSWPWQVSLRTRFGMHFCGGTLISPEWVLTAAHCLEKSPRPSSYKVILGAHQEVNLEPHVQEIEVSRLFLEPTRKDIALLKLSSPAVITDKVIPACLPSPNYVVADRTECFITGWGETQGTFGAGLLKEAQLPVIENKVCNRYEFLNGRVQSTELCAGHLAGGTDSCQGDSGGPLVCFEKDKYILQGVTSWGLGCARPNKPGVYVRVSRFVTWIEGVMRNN

SMILES: Cl.NCc1ccc(C(=O)c2ccc(CCC(=O)O)cc2)cc1 [(112) hydrochloride, 3-[p-(4-aminomethylbenzoyl)phenyl]propionic acid hydrochloride]
Ulcer inhibiting ratio (serotonin ulcer; 200 mg/kg oral): 95.6%

Clot lysis time (plasmin; [1]): 670.0 s | Clot lysis time (plasmin; [2]): 543.3 s
SMILES: CCOC(=O)CCc1ccc(C(=O)CCCCCN)cc1 [(121) hydrochloride, ethyl 3-[p-ε-aminocaproyl)phenyl]propionate hydrochloride]
Ulcer inhibiting ratio (indomethacin ulcer): 89.7% | Inhibition ratio (acidity) (gastric secretion; 50 mg/kg i.p.): 48.9% | Inhibition ratio (amount of gastric juice) (gastric secretion; 50 mg/kg i.p.): 77.9% | Amount of gastric juice (gastric secretion; 50 mg/kg i.p.): 1.5 ± 0.4 | Acidity (gastric secretion; 50 mg/kg i.p.): 55.7 ± 9.3 μeq./ml | Inhibition ratio (acidity) (gastric secretion; 100 mg/kg i.p.): 58.9% | Inhibition ratio (amount of gastric juice) (gastric secretion; 100 mg/kg i.p.): 94.1% | Amount of gastric juice (gastric secretion; 100 mg/kg i.p.): 0.4 ± 0.1 | Acidity (gastric secretion; 100 mg/kg i.p.): 44.8 ± 5.0 μeq./ml | Inhibition ratio (acidity) (gastric secretion; 200 mg/kg i.p.): 74.4% | Inhibition ratio (amount of gastric juice) (gastric secretion; 200 mg/kg i.p.): 94.1% | Amount of gastric juice (gastric secretion; 200 mg/kg i.p.): 0.4 ± 0.1 | Acidity (gastric secretion; 200 mg/kg i.p.): 27.9 ± 4.4 μeq./ml | Ulcer inhibiting ratio (serotonin ulcer; 100 mg/kg oral): 72.3% | Recalcification time (thrombin; [3]): 96.0 s

Clot lysis time (plasmin; [4]): 546.7 s | Clot lysis time (plasmin; [5]): 411.7 s
SMILES: Cl.NC[C@H]1CC[C@H](C(O)c2ccc(CCC(=O)O)cc2)CC1 (relative stereo) [trans (307) hydrochloride, 3-[p-(trans-4-aminomethylcyclohexylhydroxymethyl)phenyl]propionic acid hydrochloride]
Ulcer inhibiting ratio (serotonin ulcer; 100 mg/kg intraperitoneal): 68.7% | Recalcification time (thrombin; [3]): 80.7 s | Recalcification time (thrombin; [6]): 104.0 s

Clot lysis time (plasmin; 10^-5 M, second series, control 556.7 ± 12.6): 1398 ± 53.0 s | Clot lysis time (plasmin; 10^-6 M, second series, control 556.7 ± 12.6): 600.0 ± 37.7 s
SMILES: NCC1CCC(C(=O)Oc2ccc(CCC(=O)O)cc2)CC1 (stereo not shown) [drawing 56, reference compound]

SMILES: NCC1CCC(C(=O)Oc2ccc(CCC(=O)O)cc2)CC1 (stereo not shown) [drawing 52, reference compound]
Inhibition ratio (acidity) (gastric secretion; 200 mg/kg i.p.): 52.5% | Inhibition ratio (amount of gastric juice) (gastric secretion; 200 mg/kg i.p.): 72.1% | Amount of gastric juice (gastric secretion; 200 mg/kg i.p.): 1.9 ± 0.6 | Acidity (gastric secretion; 200 mg/kg i.p.): 51.8 ± 10.0 μeq./ml | Inhibition ratio (acidity) (gastric secretion; 400 mg/kg i.p.): 70.3% | Inhibition ratio (amount of gastric juice) (gastric secretion; 400 mg/kg i.p.): 86.8% | Amount of gastric juice (gastric secretion; 400 mg/kg i.p.): 0.9 ± 0.2 | Acidity (gastric secretion; 400 mg/kg i.p.): 32.4 ± 2.4 μeq./ml

Clot lysis time (plasmin; [1]): 736.7 s | Clot lysis time (plasmin; [2]): 521.7 s
SMILES: NCCCCCC(O)c1ccc(CCC(=O)O)cc1 (stereo not shown) [(302), 3-[p-(6-amino-1-hydroxyhex-1-yl)phenyl]-propionic acid]
Ulcer inhibiting ratio (serotonin ulcer; 100 mg/kg oral): 68.1% | Recalcification time (thrombin; [3]): 82.7 s

SMILES: NCC1CCC(C(=O)Oc2ccc(CCC(=O)O)cc2)CC1 (stereo not shown) [drawing 60, reference compound]
Recalcification time (thrombin; 5 × 10^-5 M, second series, control 103.3 ± 7.6): 144.0 ± 2.6 s | Recalcification time (thrombin; 5 × 10^-6 M, second series, control 103.3 ± 7.6): 114.7 ± 2.5 s

SMILES: NCC1CCC(C(=O)Oc2ccc(CCC(=O)O)cc2)CC1 (stereo not shown) [drawing 58, reference compound]
Recalcification time (thrombin; 5 × 10^-4 M, first series, […]): 122.7 ± 2.5 s | Recalcification time (thrombin; 5 × 10^-5 M, first series, […]): 115.3 ± 1.2 s

Clot lysis time (plasmin; [4]): 476.7 s | Clot lysis time (plasmin; [5]): 423.3 s
SMILES: Cl.NCCCCCC(=O)c1ccc(CCC(=O)O)cc1 [(102) hydrochloride, 3-[p-(ε-aminocaproyl)phenyl]propionic acid hydrochloride]
Ulcer inhibiting ratio (serotonin ulcer; 100 mg/kg intraperitoneal): 76.2% | Recalcification time (thrombin; [3]): 67.0 s | Recalcification time (thrombin; [6]): 98.3 s

SMILES: NCC1CCC(C(=O)Oc2ccc(CCC(=O)O)cc2)CC1 (stereo not shown) [drawing 47, reference compound]
Ulcer inhibiting ratio (serotonin ulcer; 100 mg/kg oral): 17.5% | Ulcer inhibiting ratio (serotonin ulcer; 300 mg/kg oral): 73.8%

Clot lysis time (plasmin; [4]): > 1800 s | Clot lysis time (plasmin; [5]): > 1800 s | Clot lysis time (plasmin; 10^-5 M, first series, control 391.7 ± 16.1): 1045.0 ± 13.2 s | Clot lysis time (plasmin; 10^-6 M, first series, control 391.7 ± 16.1): 441.7 ± 21.8 s
SMILES: NCC1CCC(C(=O)Oc2ccc(CCC(=O)O)cc2)CC1 (stereo not shown) [drawing 54, reference compound]
